biological target: Human ATX protein (Homo sapiens (Human), UniProt Q13822); test: ATX biochemical FRET assay with FS-3 substrate; conditions: 1.0 μg/mL ATX, 2 μM FS-3, 2 hours at room temperature
Excerpt: ATX (Autotaxin) is a 125 KDa glycoprotein with lysophospholipase D (LPLD) activity that generates the bioactive lipid lysophosphatidic acid (LPA) from lysophosphatidylcholine (LPC). The ATX biochemical assay utilizes a FRET (fluorescence resonance energy transfer) technology platform. The fluorescence signal of FRET substrate FS-3 is quenched due to intra-molecular FRET of a fluorophore to a non-fluorescing quencher (Ferguson, C. G., et al., Org Lett. 2006 May 11; 8(10): 2023-2026, which is incorporated by reference in its entirety). ATX catalyzes the hydrolysis of the substrate which separates the dabsyl quencher from the fluorescein reporter, which becomes fluorescent. The reaction is monitored by a SpectraMax M5 (Molecular Devices, Sunnyvale, Calif.) with at excitation wavelength 485 nm and emission wavelength […].
2×ATX assay buffer: 100 mM Tris, 280 mM NaCl, 10 mM KCl, 2 mM CaCl2, 2 mM MgCl2, pH 7.4.
Human ATX protein: expressed and purified in house. Stored at −80° C.
Substrate FS-3 (Echelon, L-2000): 100 μg in 77.74 μL H2O (1 mM stock), stored at −20° C.
Compound dilution—All compounds were provided at 10 mM in 100% DMSO. In the first well, 2 μL of 10 mM compound was added to 78 μL of DMSO (1:40 dilution). In subsequent wells 3-fold dilution (total 10 dilutions) were performed.
1×ATX assay buffer was made up with a final concentration of 1 mg/mL fatty acid free-BSA using 2×ATX assay buffer, 10 mg/ml fatty acid free-BSA and ddH2O.
ATX protein was diluted with 1×ATX assay buffer to a concentration of 1.32 μg/mL (1.32×). 38 μL was added per well to the assay plate. The final concentration of ATX in the reaction as 1.0 μg/mL.
2 μL per well of compounds was transferred to provide the desired concentration. The plate was centrifuged, then incubated at room temperature for 30 minutes on the shaker.
FS-3 was diluted with 1×ATX assay buffer to a concentration of FS-3 of 10 μM (5×). Then, 10 μL was added per well to the assay plate. The final concentration of FS-3 in the reaction was 2 μM. The plate was centrifuged. The plate was kept shaking at room temperature for 2 hours. Because FS-3 substrate is light sensitive, plates were kept covered and protected from light.
Fluorescence was measured using SpectraMax M5 (excitation at 485 nm/emission at 538 nm, top read).

| Structure (SMILES) | IC50 [µM] |
| --- | --- |
| CC(C)[C@H]1CC[C@H](Oc2cccc3cc(CN4CC(C(=O)O)C4)ccc23)CC1 [Example 21, 1-((5-((trans-4-isopropylcyclohexyl)oxy)naphthalen-2-yl)methyl)azetidine-3-carboxylic acid] | > 5 |
| CC(C)(C)[C@H]1CC[C@H](Oc2cccc3cc(CN4C5CCCC4CC(C(=O)O)C5)ccc23)CC1 (stereo partly drawn) [Example 2, 9-((5-((trans-4-(tert-butyl)cyclohexyl)oxy)naphthalen-2-yl)methyl)-9-azabicyclo[3.3.1]nonane-3-carboxylic acid] | > 5 |
| CC[C@H]1CC[C@H](Oc2cccc3cc(CN4CCC(C(=O)O)CC4)ccc23)CC1 [Example 14, 1-((5-((trans-4-ethylcyclohexyl)oxy)naphthalen-2-yl)methyl)piperidine-4-carboxylic acid] | 0.5 to 5 |
| O=C(O)C1CN(Cc2ccc3c(O[C@H]4CC[C@H](c5ccccc5)CC4)cccc3c2)C1 [Example 18, 1-((5-((trans-4-phenylcyclohexyl)oxy)naphthalen-2-yl)methyl)azetidine-3-carboxylic acid] | > 5 |
| CC(C)(C)[C@H]1CC[C@H](Oc2cccc3cc(CN4CCCC(C(=O)O)CC4)ccc23)CC1 (stereo partly drawn) [Example 8, 1-((5-((trans-4-(tert-butyl)cyclohexyl)oxy)naphthalen-2-yl)methyl)azepane-4-carboxylic acid] | > 5 |
| CC(C)(C)[C@H]1CC[C@H](Oc2cccc3cc(CNC4CC(C(=O)O)C4)ccc23)CC1 (stereo partly drawn) [Example 7, 3-(((5-((trans-4-(tert-butyl)cyclohexyl)oxy)naphthalen-2-yl)methyl)amino)cyclobutanecarboxylic acid] | 0.5 to 5 |
| CC(C)[C@H]1CC[C@H](Oc2cccc3cc(CN4CCC(C(=O)O)CC4)ccc23)CC1 [Example 13, 1-((5-((trans-4-isopropylcyclohexyl)oxy)naphthalen-2-yl)methyl)piperidine-4-carboxylic acid] | 0.5 to 5 |
| CC(C)(C)[C@H]1CC[C@H](Oc2cccc3cc(CN4CC5CC(C(=O)O)CC5C4)ccc23)CC1 (stereo partly drawn) [Example 5, 2-((5-((trans-4-(tert-butyl)cyclohexyl)oxy)naphthalen-2-yl)methyl)octahydrocyclopenta[c]pyrrole-5-carboxylic acid] | 0.5 to 5 |
| CCCCCCCOc1cccc2cc(CN3CCC(C(=O)O)CC3)ccc12 [Example 25, 1-((5-(heptyloxy)naphthalen-2-yl)methyl)piperidine-4-carboxylic acid] | > 5 |
| C[C@H]1CC[C@@H](Oc2cccc3cc(CN4CCC(C(=O)O)CC4)ccc23)CC1 [Example 28, 1-((5-((cis-4-methylcyclohexyl)oxy)naphthalen-2-yl)methyl)piperidine-4-carboxylic acid] | > 5 |
| C[C@H]1CC[C@@H](Oc2cccc3cc(CN4C5CCCC4CC(C(=O)O)C5)ccc23)CC1 (stereo partly drawn) [Example 26, 9-((5-((cis-4-methylcyclohexyl)oxy)naphthalen-2-yl)methyl)-9-azabicyclo[3.3.1]nonane-3-carboxylic acid] | 0.5 to 5 |
| CC(C)(C)[C@H]1CC[C@H](Oc2cccc3cc(CN4CCC(C(=O)O)CC4)ccc23)CC1 [Example 24, 1-((5-((trans-4-(tert-butyl)cyclohexyl)oxy)naphthalen-2-yl)methyl)piperidine-4-carboxylic acid] | < 0.5 |
| CC[C@H]1CC[C@H](Oc2cccc3cc(CN4CC(C(=O)O)C4)ccc23)CC1 [Example 19, 1-((5-((trans-4-ethylcyclohexyl)oxy)naphthalen-2-yl)methyl)azetidine-3-carboxylic acid] | 0.5 to 5 |
| O=C(O)C1CN(Cc2ccc3c(O[C@H]4CC[C@H](C(F)(F)F)CC4)cccc3c2)C1 [Example 20, 1-((5-((trans-4-(trifluoromethyl)cyclohexyl)oxy)naphthalen-2-yl)methyl)azetidine-3-carboxylic acid] | 0.5 to 5 |
| CC(C)(C)[C@H]1CC[C@H](Oc2cccc3cc(CN4C5CCC4CC(C(=O)O)C5)ccc23)CC1 (stereo partly drawn) [Example 1, 8-((5-((trans-4-(tert-butyl)cyclohexyl)oxy)naphthalen-2-yl)methyl)-8-azabicyclo[3.2.1]octane-3-carboxylic acid] | 0.5 to 5 |
| O=C(O)C1CCN(Cc2ccc3c(O[C@H]4CC[C@H](C(F)(F)F)CC4)cccc3c2)CC1 [Example 9, 1-((5-((trans-4-(trifluoromethyl)cyclohexyl)oxy)naphthalen-2-yl)methyl)piperidine-4-carboxylic acid] | 0.5 to 5 |
| C[C@H]1CC[C@H](Oc2cccc3cc(CN4CCC(C(=O)O)CC4)ccc23)CC1 [Example 15, 1-((5-((trans-4-methylcyclohexyl)oxy)naphthalen-2-yl)methyl)piperidine-4-carboxylic acid] | 0.5 to 5 |
| CC(C)[C@H]1CC[C@@H](Oc2cccc3cc(CN4CCC(C(=O)O)CC4)ccc23)CC1 [Example 11, 1-((5-((cis-4-isopropylcyclohexyl)oxy)naphthalen-2-yl)methyl)piperidine-4-carboxylic acid] | > 5 |
| CCCC[C@H]1CC[C@H](Oc2cccc3cc(CN4CC(C(=O)O)C4)ccc23)CC1 [Example 22, 1-((5-((trans-4-butylcyclohexyl)oxy)naphthalen-2-yl)methyl)azetidine-3-carboxylic acid] | > 5 |
| O=C(O)C1CCN(Cc2ccc3c(O[C@H]4CC[C@@H](C(F)(F)F)CC4)cccc3c2)CC1 [Example 10, 1-((5-((cis-4-(trifluoromethyl)cyclohexyl)oxy)naphthalen-2-yl)methyl)piperidine-4-carboxylic acid] | > 5 |
| CC(C)(C)[C@H]1CC[C@H](Oc2cccc3cc(CN4CC(C(=O)O)C4)ccc23)CC1 [Example 4, 1-((5-((trans-4-(tert-butyl)cyclohexyl)oxy)naphthalen-2-yl)methyl)azetidine-3-carboxylic acid] | < 0.5 |
| CC1(C)C(NCc2ccc3c(O[C@H]4CC[C@H](C(C)(C)C)CC4)cccc3c2)CC1C(=O)O (stereo partly drawn) [Example 3, 3-(((5-((trans-4-(tert-butyl)cyclohexyl)oxy)naphthalen-2-yl)methyl)amino)-2,2-dimethylcyclobutanecarboxylic acid] | 0.5 to 5 |
| CC[C@H]1CC[C@@H](Oc2cccc3cc(CN4CCC(C(=O)O)CC4)ccc23)CC1 [Example 12, 1-((5-((cis-4-ethylcyclohexyl)oxy)naphthalen-2-yl)methyl)piperidine-4-carboxylic acid] | 0.5 to 5 |
| C[C@H]1CC[C@@H](Oc2cccc3cc(CN4C5CCC4CC(C(=O)O)C5)ccc23)CC1 (stereo partly drawn) [Example 27, 8-((5-((cis-4-methylcyclohexyl)oxy)naphthalen-2-yl)methyl)-8-azabicyclo[3.2.1]octane-3-carboxylic acid] | 0.5 to 5 |
| O=C(O)C1CN(Cc2ccc3c(O[C@H]4CC[C@H](C5CCCC5)CC4)cccc3c2)C1 [Example 23, 1-((5-((trans-4-cyclopentylcyclohexyl)oxy)naphthalen-2-yl)methyl)azetidine-3-carboxylic acid] | > 5 |
| C[C@H]1CC[C@H](Oc2cccc3cc(CN4CC(C(=O)O)C4)ccc23)CC1 [Example 17, 1-((5-((trans-4-methylcyclohexyl)oxy)naphthalen-2-yl)methyl)azetidine-3-carboxylic acid] | > 5 |

Source: patent US10273234B2, “Compounds that are S1P modulating agents and/or ATX modulating agents” (BIOGEN MA INC., priority 2012, dated 2019)
